Assay results from paper PMC12598616, “Design and optimization of caspase-1-responsive fluorescent probes for pyroptosis imaging and anti-pyroptosis drug screening” (Chemical Science, 2025).

What was measured:
[1] = test system: activated Cas-1 in primary peritoneal macrophages; assay: High-content screening / fluorescence imaging for caspase-1 modulators in primary peritoneal macrophages; format: cell-based, mouse; details: MCC950 1 μM with Nig 10 μM simultaneously, after LPS; FPy1 5 μM
Text: The efficient and rapid discovery of Cas-1 modulators is of significant importance considering the therapeutic potential of Cas-1 in various diseases.[39,40] Therefore, we employed FPy1 to construct a high-content screening system aimed at identifying Cas-1 modulators. The level of activated Cas-1 in cells is influenced by multiple factors. To reduce the impact of factors that affect Cas-1 activation in cells, we utilized the NLRP3 inflammasome-mediated Cas-1 activation model, administering the drug during the second stage where the zymogen was converted into activated Cas-1. MCC950, a selective NLRP3 inflammasome inhibitor that could suppress Cas-1 activation, was selected as the positive drug.[41] […] To validate the efficacy of the Cas-1 modulator screening system (Fig. 6a), we first observed the fluorescence images of PMs stained with FPy1 (5 μM) in the control group, model group, and positive drug group. […] Subsequently, the impact of 25 natural products (10 μM) on activated Cas-1 were studied using high-content analysis (Fig. S20). […] To determine whether deoxyshikonin directly binds to Cas-1 and inhibits its activity, we conducted fluorescence detection following co-incubation of deoxyshikonin, FPy1 and Cas-1. […]
Harvested rat discs were fixed in 4 % buffered paraformaldehyde for 24 hours, decalcified in 10 % ethylenediaminetetraacetic acid (EDTA, Solarbio, E8030) solution for 1 month, embedded in paraffin, and sectioned at a thickness of 5 μm. […] Stained sections were evaluated by three independent raters, blinded to the research protocol, and measurements were averaged for statistical analysis. […]
In vivo fluorescence imaging of intervertebral disc degeneration
Twelve rats were modeled with needle puncture-induced intervertebral disc degeneration at the Co5/6, Co6/7 and Co 7/8 levels. […] In vivo fluorescence images were acquired using an in vivo Imaging System (PerkinElmer). […]
In vivo fluorescence imaging of osteoarthritis […]

caspase-8 = assay: Selectivity of probes: caspase-8; format: biochemical, human; details: caspase-8 1 μg/mL, 37 °C, 2 h, λex 510 nm, λem 585 nm
Text: The resin used for SPPS was purchased from GL Biochem (Shanghai, China). Lipopolysaccharide (LPS, L2630), Nigericin and ATP (11140965001) were purchased from Merck (Shanghai, China) and Invitrogen (Shanghai, China), respectively. Cell culture plates were sourced from Wuxi NEST Biotechnology. Recombinant human caspase-1, caspase-3, caspase-4, and caspase-8 were obtained from Abcam and MCE (Shanghai, China). Anti-cleaved caspase-1 antibody, anti-GAPDH antibody, and goat anti-Rabbit/anti-mouse lgG/HRP were purchased from CST (USA) and Beyotime […]
(§1) (Shanghai, China). […]
(§2) Medical College (ethical approval number ZJCLA-IACUC-20011003).
(§3) (also on this page, place not known: Wang,*f, Wang*abg Supplementary Information (SI) for Chemical Science. This journal is © The Royal Society of Chemistry 2025)
(§4) (1 picture or pasted object on this page, not shown here) […]
mixture was stirred for 3 h. […]
(§5) To investigate the sensitivity of the probes for caspase-1, varying concentration of caspase-1 (0, 0.2, 0.4, 0.6, 0.8, 1.0, 1.25, 1.5, 1.75, 2, 2.5, 3 U/mL) were incubated with FPy1 (5 μM), YPy1 (5 μM) and WPy1 (5 μM) respectively in caspase-1 assay buffer (50 mM HEPES, 50 mM NaCl, 0.1 % chaps, 5 % glycerol, 10 mM DTT, 10 mM EDTA) at 37 °C for 2 hours. Fluorescence spectra were recorded using Hitachi F-2700 spectrophotometer with an excitation at 510 nm (Photomultiplier voltage 700 V; Slit widths ex: 10 nm and em =5.0 nm). The fluorescence intensity of FPy1, YPy1 and WPy1 at 585 nm were plotted against the concentration of caspase-1, and a linear regression fitted from the corresponding concentration of caspase-1, and linear regression was applied to determine the slope k. The limit of detection (LoD) was calculated from 3σ/k, in which σ represents the standard deviation of 15 blank measurements. […]
The fluorescence intensity at 585 nm was measured on a Tecan Infinite M1000 Multi-function microplate reader (λex = 510 nm) at 37 °C every 2 minutes. The K M value of probes was determined from the Lineweaver-Burk plot. […]

caspase-1 [2] = target: T1, caspase-1 (Homo sapiens, UniProt P29466); assay: Sensitivity of probes for caspase-1 (fluorescence at 585 nm); format: biochemical; details: probe 5 μM
T1 sequence (P29466 120-297 limits assumed): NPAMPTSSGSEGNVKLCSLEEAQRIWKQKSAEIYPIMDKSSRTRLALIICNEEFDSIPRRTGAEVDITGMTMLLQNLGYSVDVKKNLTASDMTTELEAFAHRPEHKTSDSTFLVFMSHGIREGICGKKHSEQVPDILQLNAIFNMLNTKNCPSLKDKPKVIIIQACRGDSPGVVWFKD
T1 sequence (P29466 317-404 limits assumed): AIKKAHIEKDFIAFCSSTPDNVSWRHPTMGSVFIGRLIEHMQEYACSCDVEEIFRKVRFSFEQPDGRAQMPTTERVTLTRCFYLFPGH
Protocol: The spectral and chemical properties of all probes were then evaluated. Upon interaction with Cas-1, the specific peptide of the probes is cleaved, leading to the disruption of the FRET process in the system and the recovery of donor fluorescence (Fig. 2a). Prior to fluorescence detection, the UV-vis absorption spectra of the probes were acquired. […] Subsequently, the sensitivity of the probes towards Cas-1 was measured in HEPES buffer (50 mM HEPES, 50 mM NaCl, 0.1% chaps, 5% glycerol, 10 mM DTT, 10 mM EDTA). […] The response differences among the probes were more intuitively observed by analyzing the standard curves of fluorescence intensity at 585 nm against the concentration of Cas-1 (Fig. 2b). […] The reaction kinetics of the probes were also measured by monitoring the fluorescence intensity of FPy1, YPy1 and WPy1 (0.5–4 μM) following incubation with Cas-1 (2 U mL^−1) (Fig. S3a–f). […] The reaction time of the probes was also investigated by monitoring the fluorescence spectra of the probes (5 μM) incubated with Cas-1 (2 U mL^−1) at various time intervals (Fig. S4a–c). […] Finally, the selectivity of the probes was evaluated. A series of potential biologically relevant interferents were selected, and the results illustrated that these interferents had no effect on the probes (Fig. S5a–c). Further selectivity validation was performed through incubating with caspase-3 (1 μg mL^−1), caspase-4 (2 U mL^−1), caspase-8 (1 μg mL^−1) from the caspase protease family. […] Therefore, FPy1 appeared to be the prime candidate for Cas-1 imaging applications. […]
Cell culture plates were sourced from Wuxi NEST Biotechnology. Recombinant human caspase-1, caspase-3, caspase-4, and caspase-8 were obtained from Abcam and MCE (Shanghai, China). Anti-cleaved caspase-1 antibody, anti-GAPDH antibody, and goat anti-Rabbit/anti-mouse lgG/HRP were purchased from CST (USA) and Beyotime […]
as §1, §2, §3, §4
mixture was stirred for 3 h. DCM was removed under vacuum, and the residue was purified by silica gel column chromatography (DCM/MeOH, 180/1) to afford WPy1 as a dark purple solid (21 mg, 6 % yield). HRMS (ESI+): calcd […]
Analysis of probe purity by LC-MSD
Prepare dilute solutions of FPy1, YPy1 and WPy1 using chromatographic-grade acetonitrile and transfer them to sample vials. Begin with an initial mobile phase consisting of 20% acetonitrile (0.05 % formic acid) and 80% H2O (0.05 % formic acid). Over the course of 30 minutes, implement a gradient change to a mobile phase of 90% acetonitrile (0.05 % formic acid) and 10% H2O (0.05 % FA). Under the elution conditions, LC-MSD was performed on the above probe solutions and blank solvent acetonitrile.
Sensitivity of probes for caspase-1
To investigate the sensitivity of the probes for caspase-1, varying concentration of caspase-1 (0, 0.2, 0.4, 0.6, 0.8, 1.0, 1.25, 1.5, 1.75, 2, 2.5, 3 U/mL) were incubated with FPy1 (5 μM), YPy1 (5 μM) and WPy1 (5 μM) respectively in caspase-1 assay buffer (50 mM HEPES, 50 mM NaCl, 0.1 % chaps, 5 % glycerol, 10 mM DTT, 10 mM EDTA) at 37 °C for 2 hours. Fluorescence spectra were recorded using Hitachi F-2700 spectrophotometer with an excitation at 510 nm (Photomultiplier voltage 700 V; Slit widths ex: 10 nm and em =5.0 nm). The fluorescence intensity of FPy1, YPy1 and WPy1 at 585 nm were plotted against the concentration of caspase-1, and a linear regression fitted from the corresponding concentration of caspase-1, and linear regression was applied to determine the slope k. The limit of detection (LoD) was calculated from 3σ/k, in which σ represents the standard deviation of 15 blank measurements.
Various concentrations of FPy1, YPy1 and WPy1 (0.5, 1, 2, 4 μM) in 100 μL enzyme assay buffer (50 mM HEPES, 50 […]

caspase-1 [3] = target: T1, caspase-1; assay: Reaction time of probes for caspase-1; format: biochemical; details: probe 5 μM, Cas-1 2 U/mL, assay buffer, 37 °C
Protocol: The spectral and chemical properties of all probes were then evaluated. Upon interaction with Cas-1, the specific peptide of the probes is cleaved, leading to the disruption of the FRET process in the system and the recovery of donor fluorescence (Fig. 2a). Prior to fluorescence detection, the UV-vis absorption spectra of the probes were acquired. […] Subsequently, the sensitivity of the probes towards Cas-1 was measured in HEPES buffer (50 mM HEPES, 50 mM NaCl, 0.1% chaps, 5% glycerol, 10 mM DTT, 10 mM EDTA). […] The response differences among the probes were more intuitively observed by analyzing the standard curves of fluorescence intensity at 585 nm against the concentration of Cas-1 (Fig. 2b). […] The reaction kinetics of the probes were also measured by monitoring the fluorescence intensity of FPy1, YPy1 and WPy1 (0.5–4 μM) following incubation with Cas-1 (2 U mL^−1) (Fig. S3a–f). […] The reaction time of the probes was also investigated by monitoring the fluorescence spectra of the probes (5 μM) incubated with Cas-1 (2 U mL^−1) at various time intervals (Fig. S4a–c). […] Finally, the selectivity of the probes was evaluated. […]
as §5

Compound: CC(C)(O)c1coc(S(=O)(=O)NC(=O)Nc2c3c(cc4c2CCC4)CCC3)c1 [MCC950, reference compound]
- fluorescence intensity of FPy1, positive drug group vs model group [1]: significantly lower than in the model group

Compound: –WEHDG– [WPy1, caspase-1-responsive FRET probe with recognition peptide –WEHDG–; RhoB donor, hNR quencher]
- fluorescence response to caspase-8 (caspase-8): a certain level of response to caspase-8
- maximum fluorescence intensity at 585 nm (caspase-1 [2]; compared with FPy1 and YPy1): significantly lower than that of FPy1 and YPy1
- baseline fluorescence intensity at 585 nm (caspase-1 [2]; compared with other probes): lower baseline fluorescence intensity
- linear fitting range of Cas-1 concentration (caspase-1 [2]; fluorescence intensity at 585 nm vs Cas-1 concentration, 37 °C, 2 h): 0–1.25 U mL^−1
- enhancement of fluorescence intensity at 585 nm (caspase-1 [2]; Cas-1 0–3 U/mL, assay buffer 50 mM HEPES, 50 mM NaCl, 0.1% chaps, 5% glycerol, 10 mM DTT, 10 mM EDTA, 37 °C, 2 h, λex 510 nm): about 11.5 fold
- time to maximum fluorescence intensity at 585 nm (reaction time) (caspase-1 [3]): 60 min
